Measurements from US20180140578A1, “METHODS AND COMPOSITIONS FOR THE DIAGNOSIS AND SELECTIVE TREATMENT OF CANCER” (Board of Regents of the University of Texas System, priority 2016, published 2018).
Like-named read-outs stand apart in the source and are kept apart here.

Experiments:
Experiment in all cases: IC50 assay, NSCLC cell lines (Cell Titer Glo, total ATP)
Format in all cases: cell-based
H2452 = settings: Homo sapiens
Procedure: (§1) Cells were plated at ˜15% confluence in a media comprising 5% concentration of fetal bovine serum supplemented with RPMI, which included 2 mM L-Glutamine in a 96 well dish. […] Following three days of incubation in a 5% CO2 incubator, the total ATP in each well was quantified using Cell Titer Glo (Promega). […] The solid lines represent the medians.

LC-2/AD = settings: Homo sapiens
Procedure: as §1

H1573 = settings: Homo sapiens, NCI-H1573, read-out: Indisulam IC50 (log 10) (converted), U2AF1 WT
Procedure: as §1

HCC78 = settings: Homo sapiens
Procedure: as §1

H441 = settings: Homo sapiens
Procedure: as §1

H1770 = settings: Homo sapiens
Procedure: as §1

H2172 = settings: Homo sapiens
Procedure: as §1

H2126 = settings: Homo sapiens
Procedure: as §1

HCC15 = settings: Homo sapiens
Procedure: as §1

Calu-6 = settings: Homo sapiens
Procedure: as §1

H720 = settings: Homo sapiens
Procedure: as §1

H1819 = settings: Homo sapiens
Procedure: as §1

H1650 = settings: Homo sapiens
Procedure: as §1

H2030 = settings: Homo sapiens
Procedure: as §1

HCC2450 = settings: Homo sapiens
Procedure: as §1

HCC366 = settings: Homo sapiens
Procedure: as §1

H1581 = settings: Homo sapiens
Procedure: as §1

H2347 = settings: Homo sapiens
Procedure: as §1

H125 = settings: Homo sapiens
Procedure: as §1

HCC95 = settings: Homo sapiens
Procedure: as §1

HCC1438 = settings: Homo sapiens
Procedure: as §1

HCC44 = settings: Homo sapiens
Procedure: as §1

H1944 = settings: Homo sapiens
Procedure: as §1

H1355 = settings: Homo sapiens
Procedure: as §1

H1155 = settings: Homo sapiens
Procedure: as §1

HCC1359 = settings: Homo sapiens
Procedure: as §1

H820 = settings: Homo sapiens
Procedure: as §1

WI38 = settings: Homo sapiens
Procedure: as §1

[1] = read-out: Indisulam IC50 (log 10) (converted), U2AF1 S34F
[2] = read-out: Indisulam IC50, U2AF1 S34F
[3] = read-out: Indisulam IC50 (log 10) (converted), U2AF1 WT
[4] = read-out: Indisulam IC50, U2AF1 WT

NS(=O)(=O)c1ccc(S(=O)(=O)Nc2cccc3c(Cl)c[nH]c23)cc1 [Indisulam, indisulam]
IC50 (H2452; NCI-H2452, read-out: Indisulam IC50 (log 10) (converted), U2AF1 WT): 1.21 µM
IC50 (H2452; NCI-H2452, read-out: Indisulam IC50, U2AF1 WT): 1.21 µM
IC50 (LC-2/AD; [1]): 0.376 µM
IC50 (LC-2/AD; [2]): 0.376 µM
IC50 (H1573): ≥ 500 µM
IC50 (HCC78; [1]): 1.15 µM
IC50 (HCC78; [2]): 1.15 µM
IC50 (H441; NCI-H441, read-out: Indisulam IC50 (log 10) (converted), U2AF1 S34F): 59.5 µM
IC50 (H441; NCI-H441, read-out: Indisulam IC50, U2AF1 S34F): 59.5 µM
IC50 (H1770; NCI-H1770, read-out: Indisulam IC50 (log 10) (converted), U2AF1 WT): 16.2 µM
IC50 (H1770; NCI-H1770, read-out: Indisulam IC50, U2AF1 WT): 16.2 µM
IC50 (H2172; NCI-H2172, read-out: Indisulam IC50 (log 10) (converted), U2AF1 WT): 20.5 µM
IC50 (H2172; NCI-H2172, read-out: Indisulam IC50, U2AF1 WT): 20.5 µM
IC50 (H2126; NCI-H2126, read-out: Indisulam IC50 (log 10) (converted), U2AF1 WT): 20.5 µM
IC50 (H2126; NCI-H2126, read-out: Indisulam IC50, U2AF1 WT): 20.5 µM
IC50 (HCC15; [3]): 6.32 µM
IC50 (HCC15; [4]): 6.32 µM
IC50 (Calu-6; [3]): 1.51 µM
IC50 (Calu-6; [4]): 1.51 µM
IC50 (H720; [3]): 1.79 µM
IC50 (H720; [4]): 1.79 µM
IC50 (H1819; NCI-H1819, read-out: Indisulam IC50 (log 10) (converted), U2AF1 WT): 9.6 µM
IC50 (H1819; NCI-H1819, read-out: Indisulam IC50, U2AF1 WT): 9.6 µM
IC50 (H1650; NCI-H1650, read-out: Indisulam IC50 (log 10) (converted), U2AF1 WT): 31.9 µM
IC50 (H1650; NCI-H1650, read-out: Indisulam IC50, U2AF1 WT): 31.9 µM
IC50 (H2030; NCI-H2030, read-out: Indisulam IC50 (log 10) (converted), U2AF1 WT): 79.1 µM
IC50 (H2030; NCI-H2030, read-out: Indisulam IC50, U2AF1 WT): 79.1 µM
IC50 (HCC2450; [3]): 135 µM
IC50 (HCC2450; [4]): 135 µM
IC50 (HCC366; [3]): 6.91 µM
IC50 (HCC366; [4]): 6.91 µM
IC50 (H1581; NCI-H1581, read-out: Indisulam IC50 (log 10) (converted), U2AF1 WT): 19.2 µM
IC50 (H1581; NCI-H1581, read-out: Indisulam IC50, U2AF1 WT): 19.2 µM
IC50 (H2347; NCI-H2347, read-out: Indisulam IC50 (log 10) (converted), U2AF1 WT): 13.5 µM
IC50 (H2347; NCI-H2347, read-out: Indisulam IC50, U2AF1 WT): 13.5 µM
IC50 (H125; NCI-H125, read-out: Indisulam IC50 (log 10) (converted), U2AF1 WT): 10.8 µM
IC50 (H125; NCI-H125, read-out: Indisulam IC50, U2AF1 WT): 10.8 µM
IC50 (HCC95; [3]): 9.5 µM
IC50 (HCC95; [4]): 9.5 µM
IC50 (HCC1438; [3]): 22.7 µM
IC50 (HCC1438; [4]): 22.7 µM
IC50 (HCC44; [3]): 23 µM
IC50 (HCC44; [4]): 23 µM
IC50 (H1944; NCI-H1944, read-out: Indisulam IC50 (log 10) (converted), U2AF1 WT): 163 µM
IC50 (H1944; NCI-H1944, read-out: Indisulam IC50, U2AF1 WT): 163 µM
IC50 (H1355; NCI-H1355, read-out: Indisulam IC50 (log 10) (converted), U2AF1 WT): 2.5 µM
IC50 (H1355; NCI-H1355, read-out: Indisulam IC50, U2AF1 WT): 2.5 µM
IC50 (H1155; NCI-H1155, read-out: Indisulam IC50 (log 10) (converted), U2AF1 WT): 0.242 µM
IC50 (H1155; NCI-H1155, read-out: Indisulam IC50, U2AF1 WT): 0.242 µM
IC50 (HCC1359; read-out: Indisulam IC50 (log 10) (converted), U2AF1 WT (listed twice)): ≥ 50 µM
IC50 (HCC1359; read-out: Indisulam IC50, U2AF1 WT (listed twice)): ≥ 50 µM
IC50 (H820; NCI-H820, read-out: Indisulam IC50 (log 10) (converted), U2AF1 WT): 5.17 µM
IC50 (H820; NCI-H820, read-out: Indisulam IC50, U2AF1 WT): 5.17 µM
IC50 (WI38; WI-38, read-out: Indisulam IC50 (log 10) (converted), U2AF1 WT): 10 µM
IC50 (WI38; WI-38, read-out: Indisulam IC50, U2AF1 WT): 10 µM
